Measurements published in US20020119898A1, “Fabric cleaning system” (Unilever Home & Personal Care USA, Division of Conopco, Inc., priority 2000, published 2002).

Assay: pKa of Brönsted acidic or basic functional groups of the fluorescer
Format: physicochemical
Conditions: functional groups comprised in the fluorescer
Source text: In addition, a preferred group of […] can be described by the presence and pKa of certain functional groups in the fluorescer. Therefore, a preferred group of hydrophilic fluorescers comprises fluorescers having at least one or more Brönsted acidic, basic functional groups or mixtures thereof with a pKa of 7 or less. A Brönsted acidic functional group is generally defined as a —AH group having a pKa of 7 or less for the equilibrium dissociation constant Ka=[—A][H′]/[—AH]. Likewise a Brönsted basic functional group is generally defined as a —B group, the conjugate acid of it (i.e. BH^+) having a pKa of 7 or less for the equilibrium dissociation constant Ka=[—B][H^+]/[—BH^+]. Examples of acidic functional groups include sulphonate, carboxylate, sulphate, phosphate, phosphonate and phosphinate. Examples of basic functional groups include amino groups, primary, secondary and tertiary amine groups.

- pKa of functional groups: < 7
Structure (SMILES): O=S(=O)([O-])c1ccccc1C=Cc1ccc(-c2ccc(C=Cc3ccccc3S(=O)(=O)[O-])cc2)cc1.[Na+].[Na+] [TINOPAL™ CBS-X]
